Measured values taken from patent US5912183A, “Peptide inhibitors of mitogenesis and motogenesis” (Pharmacia & Upjohn S.p.A., priority 1993, dated 1999).
Residues, ends and D or L forms follow the SMILES beside them.

Tested on: N- and C-SH2 domains of p85
Test: BIAcore inhibition of binding of GST-SH2 domains to immobilized PDGF receptor phosphopeptide Y751
Design: species or system bovine
Settings: range of phosphopeptide concentrations; 25° C.; FIG. 7
Description: FIG. 7. Evaluation of the relative affinities of phosphotyrosine 1313, 1349 and 1356 for the N- and C- SH2 domains of p85. Affinities were determined by biospecific interaction analysis with the BIAcore instrument (Jonsson, U., Fagerstam, L., Roos, H., Ronnberg, J., Sjolander, Stenber, E., Stahlberg, R. Urbaniczky, C., Ostlin, H., and Malmquist. 1991. Surface plasmon reasonance and microfluidics for real time biospecific interaction analysis. Biotechniques 11: 520-527; Jonsson, U. and M. Malmquist. 1992. Real time biospecific analysis. The integration of surface plasmon reasonance detection, general biospecific interface chemistry and microfluidics into one analytical system p. 291-336. In F. Turner (ed), Advances in Biosensors, vol. 2 JAI Press, London; Karlsson, R., Michaelsson, A., and L. Mattsson. 1991. Kinetic analysis of monoclonal antibody-antigen interactions with a new biosensor based analytical system. J. Immunol. Meth. 145: 229-246).
Relative affinities were determined by measuring the ability of the phosphopeptides to inhibit the interaction of the SH2 domains with an immobilized phosphopeptide (DMSKDESVDY*VPMLDMK) (SEQ. ID NO: 26) which includes Y751 in the human PDGF receptor. Panel A and B show the results of these measurements, expressed as % inhibition of binding to phosphopeptide Y751.
GST-SH2 domain fusion proteins. The N- and C-SH2 domains of the bovine PI 3-kinase p85 subunit (amino acids 314-431 and 612-722) were obtained by polymerase chain reaction and cloned into the pGEX-2 bacterial expression vector (Smith, D. B., and Johnson K. S., Gene 67: 31-40 (1988).
Glutathione-S-transferase (GST)-SH2 fusion proteins were purified from bacterial lysates by glutathione affinity chromatography (Panayotou, G., et al. EMBO J., 11: 4261-4272 (1992)). Amino acid analysis on an Applied Biosystems 420A analyzer was used to determine the concentration of the recombinant proteins.
Analysis of the interaction of Y1349 and Y1356 with the p85 N- and C- SH2 domains using the BIAcore. […]

SMILES: CSCC[C@H](NC(=O)[C@@H](NC(=O)[C@H](CCC(=O)O)NC(=O)[C@@H](N)Cc1ccc(OP(=O)(O)O)cc1)C(C)C)C(=O)N[C@@H](CC(C)C)C(=O)N[C@@H](CCCCN)C(=O)N[C@@H](CS)C(=O)N[C@@H](Cc1c[nH]c2ccccc12)C(=O)O [H-Tyr*-Glu-Val-Met-Leu-Lys-Cys-Trp-OH] (HELM PEPTIDE1{[N[C@@H](Cc1ccc(OP(=O)(O)O)cc1)C(=O)[*:2]].E.V.M.L.K.C.W}$$$$V2.0)
- Apparent relative affinity: inhibition of binding of p85 N- and C-SH2 domains to phosphopeptide Y751: highest apparent affinity
